Test system: de novo protein synthesis in MDA-MB-231
Assay: EZClick in-cell-click de novo protein synthesis assay
Type: cell-based, human
Conditions: MDA-MB-231, 2 h exposure time
From the text: Protein synthesis is essential in cell growth, proliferation, signaling, differentiation, and death. […] The assay includes a robust chemical method based on an alkyne containing o-propargyl-puromycin probe, which stops translation by forming covalent conjugates with nascent polypeptide chains. Truncated polypeptides are rapidly turned over by the proteasome and can be detected based on the subsequent click reaction with a fluorescent azide. To test whether these compounds (4–14) induced de novo protein synthesis inhibition, compounds were tested for a 2 h exposure time, under the same conditions as the known protein synthesis inhibitor cycloheximide (CHX) in MDA-MB-231 cell model following an in-cell-click de novo protein synthesis assay.
Biovision’s EZClick™ protein synthesis monitoring assay kit (EZClick™ Global Protein Synthesis Assay Kit, Catalog # K715-100, Milpitas, CA, USA) was used according to manufacturer’s protocol. The assay was conducted in 8-well chambered coverslips (ibidi GmbH µ-slide # 80826, Martinsried, Germany). Cells were plated at 2 × 10^4 per well and incubated at 37 °C for 12 h. Then, the cells were treated with compounds for 1.5 h and processed and stained according to protocol (representative images shown in Figure 4). Protein synthesis activity is shown in red, DNA staining is shown in green. Cycloheximide (CHX) was used as a positive control and DMSO as the negative control. Images shown were taken with a Marianas CSU-X spinning disk confocal imaging system (3i, Denver, CO, USA) configured with a Zeiss Axio Observer microscope (Carl Zeiss Inc., Thornwood, NY, USA) with diode lasers, at 63× magnification and resolution of 512 × 512 pixels (3i). For each field of view, an image stack consisting of 20 optical sections were taken at 63× magnification. The total intensity of red and green staining was quantified for the entire image stack. Six fields of view were analyzed per condition. Images shown represent a single optical section for each field of view. For each stack, the red intensity (protein synthesis) was adjusted to the green intensity (DNA content) in each image. The numbers from six images were used to calculate the average and standard deviation for each condition. Numbers were normalized to the negative control value arbitrarily set to one. The Slide viewer 6 software package was used for rendering and analysis of the images.

## COC1=C[C@]23CCCN2CCc2cc4c(cc2[C@@H]3[C@@H]1O)OCO4 [Compound 9, cephalotaxine]
  concentration at which de novo protein synthesis is inhibited: 10 µM

Reference: PMC6571673, “Cytostatic and Cytotoxic Natural Products against Cancer Cell Models” (Molecules, 2019)
